pIC50: −log10 of the molar value.
Target: cGMP-specific 3',5'-cyclic phosphodiesterase (PDE5A) (Sus scrofa)
Experiment: Inhibitory activity against cyclic GMP-phosphodiesterase (PDE V) isolated from porcine aorta.

| pIC50 | Structure (SMILES) |
| --- | --- |
| 5.77 | COc1cccc(CNc2ncnc3c(OC)c(OC)c(OC)cc23)c1 [(3-Methoxy-benzyl)-(6,7,8-trimethoxy-quinazolin-4-yl)-amine] |
| 5.72 | COc1cc2c(NCc3ccc4c(c3)CCC4)ncnc2c(OC)c1OC [Indan-5-ylmethyl-(6,7,8-trimethoxy-quinazolin-4-yl)-amine] |
| 5.89 | COc1cc2c(NCc3ccc(Cl)cc3)ncnc2c(OC)c1OC [(4-Chloro-benzyl)-(6,7,8-trimethoxy-quinazolin-4-yl)-amine] |
| 5.40 | COc1cc2c(NCc3ccco3)ncnc2c(OC)c1OC [Furan-2-ylmethyl-(6,7,8-trimethoxy-quinazolin-4-yl)-amine] |
| 6.00 | COc1ccc(CNc2ncnc3c(OC)c(OC)c(OC)cc23)cc1 [(4-Methoxy-benzyl)-(6,7,8-trimethoxy-quinazolin-4-yl)-amine] |
| 5.46 | COc1cc2c(NCc3cccc([N+](=O)[O-])c3)ncnc2c(OC)c1OC [(3-Nitro-benzyl)-(6,7,8-trimethoxy-quinazolin-4-yl)-amine] |
| 5.05 | COc1cc(CNc2ncnc3c(OC)c(OC)c(OC)cc23)cc(OC)c1OC [(3,4,5-Trimethoxy-benzyl)-(6,7,8-trimethoxy-quinazolin-4-yl)-amine] |
| 5.82 | CCCc1c(OCCCOc2ccc3c(=O)cc(C(=O)O)oc3c2CCC)ccc(C(C)=O)c1O [7-[3-(4-Acetyl-3-hydroxy-2-propyl-phenoxy)-propoxy]-4-oxo-8-propyl-4H-chromene-2-carboxylic acid] |
| < 4.00 | COc1cc(OC)c(CNc2ncnc3c(OC)c(OC)c(OC)cc23)c(OC)c1 [(2,4,6-Trimethoxy-benzyl)-(6,7,8-trimethoxy-quinazolin-4-yl)-amine] |
| 5.70 | COc1cc2c(NCc3ccccc3)ncnc2c(OC)c1OC [Benzyl-(6,7,8-trimethoxy-quinazolin-4-yl)-amine] |
| < 4.00 | COc1cc2c(NCc3ccc([N+](=O)[O-])cc3)ncnc2c(OC)c1OC [(4-Nitro-benzyl)-(6,7,8-trimethoxy-quinazolin-4-yl)-amine] |
| 5.89 | COc1cc2c(NCc3cccc(Cl)c3)ncnc2c(OC)c1OC [(3-Chloro-benzyl)-(6,7,8-trimethoxy-quinazolin-4-yl)-amine] |
| 4.49 | COc1cc2c(=O)n(CCc3ccc4c(c3)OCO4)cnc2c(OC)c1OC [3-(2-Benzo[1,3]dioxol-5-yl-ethyl)-6,7,8-trimethoxy-3H-quinazolin-4-one] |
| 5.26 | COc1cc2c(NCCCCCO)ncnc2c(OC)c1OC [5-(6,7,8-Trimethoxy-quinazolin-4-ylamino)-pentan-1-ol] |
| 6.19 | CCCc1c(OCc2ccc3c(c2)OCO3)ccc2c(=O)cc(C(=O)O)oc12 [7-(Benzo[1,3]dioxol-5-ylmethoxy)-4-oxo-8-propyl-4H-chromene-2-carboxylic acid] |
| 6.11 | COc1cc2c(NCc3ccc4c(c3)OCCO4)ncnc2c(OC)c1OC [(2,3-Dihydro-benzo[1,4]dioxin-6-ylmethyl)-(6,7,8-trimethoxy-quinazolin-4-yl)-amine] |

Source: BindingDB's records for doi:10.1021/jm00076a003 (Eisai, 1994)
